Patent publication US7053175B1, “Synthetic peptides useful in biological assays for detecting infections caused by group O HIV-1 viruses” (Bio-Rad Pasteur, priority 1997, dated 2006)
No end group written: not given here.

Tested on: sera from patients infected with group O HIV-1 retroviruses
Assay: Immunoenzymatic test: Test No. 1 (immunoreactivity of peptides coated on microplates)
Assay type: binding, human
Set-up: key to ABSORBANCE: >: signal greater than the reading capacity of the spectrophotometer
Settings: for ABSORBANCE: cyclized peptide 2 μg/ml
Description: The sera used ESS, DUR, VAU and HAD are sera from French patients infected with group O HIV-1 retroviruses. The other serum samples from patients infected with group O HIV-1 retroviruses were obtained by the Yaoundé Pasteur Centre in Cameroon and were serotyped group O according to the serological algorithm described in AIDS (1977), 11, pp 445-453.
The HIV-negative sera (n=48) were obtained from healthy volunteers.
The synthetic peptides used were dissolved in water at a concentration of 1 mg/ml (stock solution). For the solid phase sensitization step (coating), 110 μl of a solution at 2 μg/ml of each peptide (obtained by diluting the stock solution with 0.1 M carbonate buffer solution) were added to each well of the microtitre plates Microtiter™ (NUNC). After incubating overnight at room temperature, the microplates were first washed with a Tris-NaCl buffer solution pH 7.4 containing 0.1% of Tween® 20 and 0.001% sodium merthiolate, and then saturated with a PBS solution containing 0.5% of Régilait™ (dried skimmed milk). After aspirating the saturating solution, the plates were heated for 10 min at 50° C.
The serum samples were diluted 1/5 with a skimmed milk solution (citrate buffer supplemented with 0.01% of phenol red, 0.25% of chloroform and 0.25% of Kathon®), deposited in the wells of the plates and incubated for 30 min at 40° C.
After washing with a Tris-NaCl buffer solution pH 7.4 containing 0.1% of Tween® 20 and 0.001% of sodium merthiolate, 100 μl of a solution of conjugate consisting of horseradish peroxidase-labelled anti-human IgG and IgM goat antibodies, containing as preservative 0.01% of sodium merthiolate, in solution in a citrate buffer solution supplemented with 30% glycerol and 25% normal foetal calf serum, were added to each plate well and then the plates were incubated for 30 min at 40° C.
After washing with a Tris-NaCl buffer solution pH 7.4 containing 0.1% of Tween® 20 and 0.001% of sodium merthiolate, the colour was developed by adding, to each well, 100 μl of O-phenylenediamine in solution in hydrogen peroxide. The microplates were then incubated for 30 min at room temperature and in the dark. The coloured reaction was then stopped by addition of 100 μl of 4N sulphuric acid. The absorbance (A) was determined at 490 and 620 nm.
The relative absorbance (A490-A620) read in each well is proportional to the immunoreactivity of each peptide. It indicates the ability of each peptide to react with the biological sample with which the test is carried out. The cut-off value was determined as being an absorbance equal to 0.15. It corresponds to the mean of the negative values (n=48) plus 12 standard deviations.
The reactivity of the peptides of the invention (peptide No. 3 (4B), peptide No. 2 (3B) and peptide No. 1 (2B), all in cyclized form), was compared with that of two synthetic peptides having, as sequence, a portion of the natural sequence of the envelope (env) of the VAU isolate (group O HIV-1 retrovirus) and comprising an immunodominant epitope of gp41.
For the study, these peptides were used in cyclized form.

LLSSWGCKGRLVCYTSVQWNET [PEPTIDE No. 3 (4B)]
ABSORBANCE (serum 134): >
ABSORBANCE (serum 402): >
ABSORBANCE (serum 625): >
ABSORBANCE (serum 1062): >
ABSORBANCE (serum 1105*): 1.421
ABSORBANCE (serum 1581): >
ABSORBANCE (serum 1702): >
ABSORBANCE (serum 1754): >
ABSORBANCE (serum 2294): >
ABSORBANCE (serum 2312): >
ABSORBANCE (serum 2313): >
ABSORBANCE (serum 2352): >
ABSORBANCE (serum 2551): >
ABSORBANCE (serum 2700): >
ABSORBANCE (serum 3016): >
ABSORBANCE (serum 3136): >
ABSORBANCE (serum 3235): >
ABSORBANCE (serum 3236): >
ABSORBANCE (serum 3302): >
ABSORBANCE (serum 3482): 2.402
ABSORBANCE (serum 3529): >
ABSORBANCE (serum 3600*): >
ABSORBANCE (serum 3627*): >
ABSORBANCE (serum 3637): >
ABSORBANCE (serum 3653): 1.352
ABSORBANCE (serum 3771): >
ABSORBANCE (serum 3884*): >
ABSORBANCE (serum 3891): >
ABSORBANCE (serum 3935): >
ABSORBANCE (serum 3945): >
ABSORBANCE (serum 4021*): 0.430
ABSORBANCE (serum 4288*): >
ABSORBANCE (serum 4364): >
ABSORBANCE (serum 4434): >
ABSORBANCE (serum 4477): >
ABSORBANCE (serum 4489*): >
ABSORBANCE (serum 5149*): >
ABSORBANCE (serum 5164): >
ABSORBANCE (serum 5210): >
ABSORBANCE (serum 5270*): >
ABSORBANCE (serum 5373): >
ABSORBANCE (serum 5453): 0.555
ABSORBANCE (serum 5766*): >
ABSORBANCE (serum 5931): >
ABSORBANCE (serum 5969*): >
ABSORBANCE (serum 6111): >
ABSORBANCE (serum 6165): >
ABSORBANCE (serum 6198*): >
ABSORBANCE (serum 6295*): 1.718
ABSORBANCE (serum 6487): >
ABSORBANCE (serum 6512*): 0.746
ABSORBANCE (serum 6627): >
ABSORBANCE (serum 6689*): 0.710
ABSORBANCE (serum 6697): >
ABSORBANCE (serum 6782): >
ABSORBANCE (serum 6891): >
ABSORBANCE (serum 6976*): >
ABSORBANCE (serum 6998): >
ABSORBANCE (serum 7007): 2.136
ABSORBANCE (serum 7120): >
ABSORBANCE (serum 7212): >
ABSORBANCE (serum 7258*): >
ABSORBANCE (serum 7297*): >
ABSORBANCE (serum 7439): >
ABSORBANCE (serum 7443): >
ABSORBANCE (serum DUR*): >
ABSORBANCE (serum ESS*): >**
ABSORBANCE (serum HAD): >
ABSORBANCE (serum VAU*): 1.342
immunoreactivity compared with the other peptides (in words) (summary of Table IV): best performance

RLLALETFIEENELLNLWGCKNRAICYTSVKWNKT (cysteine pairing not given here) [VAU 35 AA, reference compound]
ABSORBANCE (serum 134): >
ABSORBANCE (serum 402): >
ABSORBANCE (serum 625): 2.585
ABSORBANCE (serum 1062): >
ABSORBANCE (serum 1105*): 0.129
ABSORBANCE (serum 1581): 0.894
ABSORBANCE (serum 1702): >
ABSORBANCE (serum 1754): 1.948
ABSORBANCE (serum 2294): >
ABSORBANCE (serum 2312): >
ABSORBANCE (serum 2313): >
ABSORBANCE (serum 2352): >
ABSORBANCE (serum 2551): >
ABSORBANCE (serum 2700): >
ABSORBANCE (serum 3016): >
ABSORBANCE (serum 3136): >
ABSORBANCE (serum 3235): >
ABSORBANCE (serum 3236): >
ABSORBANCE (serum 3302): >
ABSORBANCE (serum 3482): >
ABSORBANCE (serum 3529): >
ABSORBANCE (serum 3600*): >
ABSORBANCE (serum 3627*): >
ABSORBANCE (serum 3637): 1.647
ABSORBANCE (serum 3653): 1.322
ABSORBANCE (serum 3771): >
ABSORBANCE (serum 3884*): >
ABSORBANCE (serum 3891): >
ABSORBANCE (serum 3935): 0.227
ABSORBANCE (serum 3945): >
ABSORBANCE (serum 4021*): 1.957
ABSORBANCE (serum 4364): >
ABSORBANCE (serum 4434): >
ABSORBANCE (serum 4477): >
ABSORBANCE (serum 4489*): 1.718
ABSORBANCE (serum 5149*): >
ABSORBANCE (serum 5164): >
ABSORBANCE (serum 5210): >
ABSORBANCE (serum 5270*): >
ABSORBANCE (serum 5373): 0.856
ABSORBANCE (serum 5453): 1.482
ABSORBANCE (serum 5766*): >
ABSORBANCE (serum 5931): 2.225
ABSORBANCE (serum 5969*): >
ABSORBANCE (serum 6111): >
ABSORBANCE (serum 6165): >
ABSORBANCE (serum 6198*): >
ABSORBANCE (serum 6295*): >
ABSORBANCE (serum 6487): 2.891
ABSORBANCE (serum 6512*): 0.174
ABSORBANCE (serum 6627): >
ABSORBANCE (serum 6689*): >
ABSORBANCE (serum 6697): >
ABSORBANCE (serum 6782): 2.214
ABSORBANCE (serum 6891): 0.496
ABSORBANCE (serum 6976*): >
ABSORBANCE (serum 6998): >
ABSORBANCE (serum 7007): 2.151
ABSORBANCE (serum 7120): >
ABSORBANCE (serum 7212): >
ABSORBANCE (serum 7258*): >
ABSORBANCE (serum 7297*): >
ABSORBANCE (serum 7439): >
ABSORBANCE (serum 7443): 0.574
ABSORBANCE (serum DUR*): 0.872
ABSORBANCE (serum ESS*): >
ABSORBANCE (serum HAD): 0.871
ABSORBANCE (serum VAU*): >
